The CombiSolv-Exp solvation set (Vermeire and Green 2021)

Assay: solvent given as SMILES

ClCCCl
Conditions | solvation free energy, 298 K [kcal/mol]
in Brc1cccc2ccccc12 | -4.18
in C1CCOC1 | -5.01
in C1COCCO1 | -4.98
in CC(=O)CC(C)C | -4.68
in CC(=O)N(C)C | -5.01
in CC(=O)OCc1ccccc1 | -4.59
in CC(C)OC(C)C | -3.88
in CCC(C)=O | -4.79
in CCCCCC | -3.75
in CCCCCCC | -3.7
in CCCCCCCC | -3.7
in CCCCCCCCCCCCCC | -3.49
in CCCCCCCCCCCCCCCC | -3.52
in CCCCCCCCN(CCCCCCCC)CCCCCCCC | -3.6
in CCCCCCCCO | -3.78
in CCCCCN(CCCCC)CCCCC | -3.76
in CCCCCl | -4.42
in CCCCN(C=O)CCCC | -4.62
in CCCCN(CCCC)CCCC | -3.65
in CCCCO | -3.98
in CCCCOCCCC | -4.16
in CCO | -4.03
in CCOC(C)=O | -4.72
in CCOCC | -4.45
in CNC(C)=O | -4.45
in COC(=O)OC | -4.73
in COC(C)(C)C | -4.35
in Cc1ccc(C)cc1 | -4.41
in Cc1cccc(C)c1 | -4.45
in Cc1ccccc1C | -4.42
in ClC(Cl)(Cl)Cl | -4.3
in ClC(Cl)Cl | -4.69
in O | -1.79
in [2H]O[2H] | -1.89
in c1ccc2ncccc2c1 | -4.54
in c1ccccc1 | -4.68

C=C(C)C1CCC2(C)CCCC(=C)C2C1 (stereo not given)
Conditions | solvation free energy, 298 K [kcal/mol]
in O | -0.05

C=CCCCCCCC
Conditions | solvation free energy, 298 K [kcal/mol]
in CCCCCCCCO | -5.21
in O | 2.06

COc1ncnc(NS(=O)(=O)c2ccc(N)cc2)c1OC
Conditions | solvation free energy, 298 K [kcal/mol]
in O | -19.6

C1CCCCC1
Conditions | solvation free energy, 298 K [kcal/mol]
in BrC(Br)C(Br)Br | -3.42
in Brc1cccc2ccccc12 | -3.66
in Brc1ccccc1 | -4.07
in C1=Cc2ccccc2C1 | -3.92
in C1CCC(C2CCCCC2)CC1 | -4.09
in C1CCNC1 | -4.04
in C1CCNCC1 | -4.32
in C1CCOC1 | -4.23
in C1COCCO1 | -3.66
in C=CCCCC | -4.22
in C=CCCCCCC | -4.18
in C=CCCCCCCCC | -4.12
in C=CCCCCCCCCCCCCCC | -3.89
in CC1CCS(=O)(=O)C1 | -2.73
in CC1COC(=O)O1 | -2.65
in CC#N | -3.03
in CC(=O)CC(C)C | -3.92
in CC(=O)O | -3.23
in CC(=O)OCc1ccccc1 | -3.53
in CC(=O)c1ccccc1 | -3.52
in CC(C)(C)O | -3.67
in CC(C)=O | -3.58
in CC(C)CC(C)(C)C | -4.15
in CC(C)CCCC(C)CCCC(C)CCCCC(C)CCCC(C)CCCC(C)C | -3.87
in CC(C)CCO | -3.77
in CC(C)CO | -3.93
in CC(C)O | -3.52
in CC(C)OC(C)C | -4.18
in CCBr | -4.31
in CCC#N | -3.57
in CCC(C)(C)OC | -4.3
in CCC(C)=O | -3.79
in CCC(C)O | -3.64
in CCCC#N | -3.45
in CCCC(=O)OCC | -3.93
in CCCC(C)=O | -3.82
in CCCCC | -4.25
in CCCCC#N | -3.58
in CCCCC(CC)COC(=O)CCCCC(=O)OCC(CC)CCCC | -3.77
in CCCCC(CC)COC(=O)c1ccccc1C(=O)OCC(CC)CCCC | -3.6
in CCCCCC | -4.24
in CCCCCC#N | -3.66
in CCCCCC(C)=O | -3.86
in CCCCCCC | -4.2
in CCCCCCCC | -4.18
in CCCCCCCCC | -4.13
in CCCCCCCCC=CCCCCCCCC(=O)OCC(COC(=O)CCCCCCCC=CCCCCCCCC)OC(=O)CCCCCCCC=CCCCCCCCC | -3.86
in CCCCCCCCCC | -4.11
in CCCCCCCCCCCC | -4.03
in CCCCCCCCCCCCCC | -3.91
in CCCCCCCCCCCCCCCC | -3.97
in CCCCCCCCCCCCO | -3.7
in CCCCCCCCCCO | -3.42
in CCCCCCCCN(CCCCCCCC)CCCCCCCC | -3.86
in CCCCCCCCO | -3.73
in CCCCCCCO | -3.72
in CCCCCCO | -3.75
in CCCCCCOC(C)=O | -3.93
in CCCCCN(CCCCC)CCCCC | -4.01
in CCCCCO | -3.71
in CCCCCl | -4.17
in CCCCN(C=O)CCCC | -3.67
in CCCCN(CCCC)CCCC | -3.92
in CCCCO | -3.7
in CCCCOC | -4.2
in CCCCOC(=O)c1ccccc1C(=O)OCCCC | -3.73
in CCCCOC(C)=O | -3.91
in CCCCOCC | -4.07
in CCCCOCCCC | -4.13
in CCCO | -3.59
in CCCOCCC | -4.12
in CCN1CCCC1=O | -3.39
in CCN(CC)C(C)=O | -3.55
in CCN(CC)CC | -4.23
in CCNC(C)=O | -3.41
in CCNC=O | -3.22
in CCO | -3.5
in CCOC(=O)c1ccccc1C(=O)OCC | -3.24
in CCOC(C)(C)C | -4.17
in CCOC(C)=O | -3.78
in CCOCC | -4.19
in CCOCCO | -3.41
in CCOCCOCCOCC | -3.81
in CCOc1ccccc1 | -3.89
in CN1CCCC1=O | -3.18
in CN1CCCCC1=O | -3.37
in CN1CCN(C)C1=O | -3.07
in CN(C)P(=O)(N(C)C)N(C)C | -3.47
in CNC(C)=O | -3.26
in CNC=O | -2.93
in CO | -3.25
in COC(C)(C)C | -4.16
in COC(C)=O | -3.61
in COCCO | -3.15
in COc1ccccc1 | -3.84
in CS(C)=O | -2.5
in Cc1ccc(C)cc1 | -4.17
in Cc1cccc2ccccc12 | -3.8
in Cc1cccc(O)c1 | -3.42
in Cc1ccccc1 | -4.2
in Cc1ccccn1 | -3.91
in ClC(Cl)(Cl)Cl | -4.44
in ClC(Cl)C(Cl)Cl | -3.76
in ClC(Cl)Cl | -4.33
in ClCCCl | -3.93
in ClCCl | -4.1
in Clc1cccc2ccccc12 | -3.88
in Clc1ccccc1 | -4.22
in FC(F)(F)C(F)(F)C(F)(F)C(F)(F)C(F)(F)C(F)(F)C(F)(F)C(F)(F)F | -2.65
in FC(F)(F)C(F)(F)C(F)(F)C(F)(F)C(F)(F)C(F)(F)F | -2.71
in Fc1ccccc1 | -4.12
in ICI | -3.06
in N#CCCCC#N | -2.17
in N#CCCCCC#N | -2.51
in N#CCCOCCC#N | -2.24
in N#CCc1ccccc1 | -3.16
in N#Cc1ccccc1 | -3.54
in NC=O | -1.36
in NCCO | -1.69
in NCc1ccccc1 | -3.46
in Nc1ccccc1 | -3.07
in O | 1.22
in O=C1CCCCC1 | -3.85
in O=C1CCCO1 | -2.81
in O=C(O)C(Cl)Cl | -3.29
in O=CN1CCOCC1 | -2.65
in O=Cc1ccco1 | -3.01
in OC1CCCCC1 | -3.69
in OCCCCCO | -2.61
in OCCCCO | -2.53
in OCCCO | -2.19
in OCCO | -1.5
in OCCOCCO | -2.16
in OCCOCCOCCO | -2.26
in OCCOCCOCCOCCO | -2.34
in OCCS | -2.58
in OCCc1ccccc1 | -3.32
in OCc1ccccc1 | -3.23
in OCc1ccco1 | -2.94
in S=C=S | -4.49
in c1ccc2c(c1)CCCC2 | -4.1
in c1ccc2ncccc2c1 | -3.61
in c1ccc(C2CCCCC2)cc1 | -4.03
in c1ccccc1 | -4.23
in c1ccncc1 | -3.75

Fc1c(F)c(F)c(F)c(F)c1F
Conditions | solvation free energy, 298 K [kcal/mol]
in C1CCOC1 | -4.5
in C1COCCO1 | -4.23
in CC(C)CC(C)(C)C | -3.53
in CC(C)OC(C)C | -4.13
in CCCCO | -3.46
in CCOCC | -4.35
in O | 0.1

Clc1ccc2c(c1)Oc1c(Cl)c(Cl)c(Cl)c(Cl)c1O2
Conditions | solvation free energy, 298 K [kcal/mol]
in O | -4.15

CC(C)Nc1nc(Cl)nc(NC(C)C)n1
Conditions | solvation free energy, 298 K [kcal/mol]
in O | -9.55

CC(C)CCCCCCOC(=O)c1ccccc1C(=O)OCCCCCCC(C)C
Conditions | solvation free energy, 298 K [kcal/mol]
in O | -6.14

CCF
Conditions | solvation free energy, 298 K [kcal/mol]
in C1CCOC1 | -1.79
in CCCCCCC | -1.45
in CN1CCCC1=O | -1.86
in CN(C)C=O | -1.95
in O | 0.41
